# In article PMC12040169 (PLOS Biology, 2025):
# Assay: in vitro
# Settings: human, hela cells, % viability
row,Structure (SMILES),"viability at 28.5 h, 10 µM [%]"
1,COC[C@H]1CCCN1C(=O)CC[C@H]1CNC(=O)[C@@H]2[C@@H](CCN2C(C)C)N1C [CBK289038],103
2,COC[C@H]1CCCN1C(=O)CC[C@H]1CNC(=O)[C@@H]2[C@@H](CCN2C2CCCCC2)N1C [CBK289039],89.7
3,CN1CCC(N[C@H]2CC(C)(C)[C@@H]3C[C@@](C)(O)CC[C@]23CCC(=O)N2CCOCC2)CC1 [CBK289040],97.2
4,CC(=O)N1CCN(C(=O)C[C@@H]2C[C@@H](C(C)C)[C@H](CNC(=O)c3cccnc3)C=C2C)CC1 [CBK289046],102
5,CC1=C[C@@H](CNS(=O)(=O)c2ccccc2)[C@H](C(C)C)C[C@H]1CC(=O)N1CCOCC1 [CBK289049],79.7
6,CC1=C[C@@H](CNC(=O)c2ccncc2)[C@H](C(C)C)C[C@H]1CC(=O)N1CCOCC1 [CBK289052],80.2
7,CC1=C[C@@H](CNC(=O)c2cccnc2)[C@H](C(C)C)C[C@H]1CC(=O)N1CCOCC1 [CBK289053],92.4
8,CC1=C[C@@H](CNS(=O)(=O)c2ccccc2)[C@H](C(C)C)C[C@H]1CC(=O)N1CCCC1 [CBK289054],122
9,CC1=C[C@@H](CNC(=O)c2cccnc2)[C@H](C(C)C)C[C@H]1CC(=O)N1CCCC1 [CBK289055],87.7
10,CN1C(=O)COC[C@@H]1[C@H](O)c1ccc(NC(=O)C2CC2)cc1 [CBK289057],83.1
11,COCC(=O)Nc1ccc([C@@H](O)[C@H]2COCC(=O)N2C)cc1 [CBK289058],106
12,O=C(Nc1ccc([C@@H](O)[C@H]2COCC(=O)N2Cc2ccccc2F)cc1)c1cnccn1 [CBK289060],83.2
13,O=C(Nc1ccc([C@@H](O)[C@H]2COCC(=O)N2Cc2ccc(F)cc2)cc1)c1cccnc1 [CBK289062],93.3
14,CC(C)NC(=O)N1CCC[C@@H](O)[C@H](NC(=O)c2ccc(OCc3ccccc3)cc2)C1 [CBK289063],106
15,COc1ccc(C(=O)N[C@@H]2CN(Cc3ccc(CO)o3)CCC[C@H]2O)cc1 [CBK289067],89.8
16,CCNC(=O)N1CCC[C@@H](O)[C@H](NC(=O)c2ccc(OCc3c(C)noc3C)cc2)C1 [CBK289068],84.2
17,Cc1noc(C)c1COc1ccc(C(=O)N[C@@H]2CN(C(=O)NC(C)C)CCC[C@H]2O)cc1 [CBK289069],93.1
18,O=C(N[C@@H]1CNCCC[C@H]1O)c1ccc(OCCN2CCCC2)cc1 [CBK289070],101
19,COCCOc1ccc(C(=O)N[C@@H]2CNCCC[C@H]2O)cc1 [CBK289071],94.6
20,CC(=O)Nc1ccc2n(c1=O)C[C@H]1C[C@@H]2CN(C(=O)COc2ccccc2)C1 [CBK289074],89
21,COCCC(=O)N1C[C@@H]2C[C@H](C1)c1ccc(NC(=O)Nc3cccc(F)c3)c(=O)n1C2 [CBK289075],84.6
22,O=C(Nc1ccc2n(c1=O)C[C@@H]1CNC[C@H]2C1)c1ccc(F)cc1 [CBK289078],98.4
23,O=C(COc1ccccc1)Nc1ccc2n(c1=O)C[C@H]1C[C@@H]2CN(C(=O)c2ccccc2)C1 [CBK289079],76.6
24,O=C(NCc1ccco1)[C@H]1CN2CCC1C[C@@H]2Cn1cc(CO)nn1 (stereo partly drawn) [CBK289080],113
25,CC(C)(C)c1cn(C[C@H]2CC3CCN2C[C@@H]3C(=O)NCc2ccc(F)cc2)nn1 (stereo partly drawn) [CBK289081],102
26,O=C(NC1CCCCC1)[C@H]1CN2CCC1C[C@@H]2Cn1cc(CO)nn1 (stereo partly drawn) [CBK289086],102
27,CNCc1cn(C[C@H]2CC3CCN2C[C@@H]3C(=O)N2CCCC2)nn1 (stereo partly drawn) [CBK289087],104

row,Structure (SMILES),"viability at 28.5 h, 10 µM [%]"
1,Nc1cccc(-c2cn(C[C@H]3CC4CCN3C[C@@H]4C(=O)NCc3cccnc3)nn2)c1 (stereo partly drawn) [CBK289088],84.3
2,CN(C)C(=O)[C@H]1CN2CCC1C[C@@H]2Cn1cc(CCO)nn1 (stereo partly drawn) [CBK289089],89.9
3,CC(C)NC(=O)[C@H]1CN2CCC1C[C@@H]2Cn1cc(C2(O)CCCC2)nn1 (stereo partly drawn) [CBK289090],103
4,O=C(Nc1ccccc1)[C@H]1CN2CCC1C[C@@H]2Cn1cc(C2(O)CCCC2)nn1 (stereo partly drawn) [CBK289091],103
5,O=C(NC1CC1)[C@H]1CN2CCC1C[C@@H]2Cn1cc(C2(O)CCCC2)nn1 (stereo partly drawn) [CBK289092],82.1
6,Cn1nc(-c2ccccc2)cc1[C@H]1CN2CC[C@H]1C[C@@H]2CNC(=O)N1CCOCC1 [CBK289094],113
7,Cn1nc(-c2ccccc2)cc1[C@H]1CN2CC[C@H]1C[C@@H]2CNS(C)(=O)=O [CBK289096],99.2
8,CC(C)NC(=O)NC[C@H]1C[C@@H]2CCN1C[C@@H]2c1cc(-c2ccccc2)nn1C [CBK289097],84.5
9,Cn1nc(-c2cccs2)cc1[C@H]1CN2CC[C@H]1C[C@@H]2CNC(=O)c1ccco1 [CBK289100],86.6
10,CCCS(=O)(=O)NC[C@H]1C[C@@H]2CCN1C[C@@H]2c1cc(-c2cccs2)nn1C [CBK289101],98.4
11,CC(C)NC(=O)NC[C@H]1C[C@@H]2CCN1C[C@@H]2c1cc(C2CCCCC2)nn1C [CBK289107],90.8
12,Cn1nc(-c2ccc(F)cc2)cc1[C@H]1CN2CC[C@H]1C[C@@H]2CNS(C)(=O)=O [CBK289109],98.8
13,CC(C)NC(=O)NC[C@H]1C[C@@H]2CCN1C[C@@H]2c1cc(-c2ccc(F)cc2)nn1C [CBK289111],88.5
14,O=C(NC[C@H]1C[C@@H]2CC[N@]1C[C@@H]2CN1CCN(c2ncccn2)CC1)c1ccco1 [CBK289115],88.1
15,CC(C)NC(=O)NC[C@H]1C[C@@H]2CC[N@]1C[C@@H]2CN1CCN(c2ncccn2)CC1 [CBK289116],89.7
16,O=C(NC[C@H]1C[C@@H]2CC[N@]1C[C@@H]2CN1CCN(c2ncccn2)CC1)Nc1ccsc1 [CBK289117],90.3
17,CCC(CC)c1cc([C@H]2CN3CC[C@H]2C[C@@H]3CO)nc(-c2ccncc2)n1 [CBK289118],100
18,Cc1nc(C2CCCC2)cc([C@H]2CN3CC[C@H]2C[C@@H]3CNS(C)(=O)=O)n1 [CBK289121],87.6
19,CCNC(=O)NC[C@H]1C[C@@H]2CCN1C[C@@H]2c1cc(C2CCCC2)nc(C)n1 [CBK289122],81.6
20,Cc1nc(-c2ccccc2)cc([C@H]2CN3CC[C@H]2C[C@@H]3CNS(C)(=O)=O)n1 [CBK289124],114
21,Cc1nc(-c2ccccc2)cc([C@H]2CN3CC[C@H]2C[C@@H]3CNC(=O)NC(C)C)n1 [CBK289126],89.9
22,Cc1nc(-c2cccs2)cc([C@H]2CN3CC[C@H]2C[C@@H]3CNC(=O)c2ccco2)n1 [CBK289127],86.9
23,CC(=O)NC[C@H]1C[C@@H]2CCN1C[C@@H]2c1cc(-c2ccco2)nc(C)n1 [CBK289128],102
24,CC(=O)N1CCC(NC[C@H]2C[C@@H]3CCN2C[C@@H]3c2cc(C3CCCC3)nc(C)n2)CC1 [CBK289129],84.3
25,CC[C@H]1CN(C(C)=O)CC[C@H]1CC(=O)Nc1nccs1 [CBK289130],97.8
26,CC[C@H]1CN(C(C)=O)CC[C@H]1CC(=O)NCc1ccc2c(c1)OCO2 [CBK289131],89.2
27,CC[C@H]1CN(C(=O)C2CC2)CC[C@H]1CC(=O)NCc1ccc2c(c1)OCO2 [CBK289133],91.9
